“Also recorded” adds a separate entry of the source.
How the values were obtained:
[1] = tested on: dorsal root ganglion neurons; experiment: Cisplatin toxicity in cultured dorsal root ganglion neurons, survival rate by acid phosphatase activity; type: cell-based, rat
Method: The dorsal root ganglion neurons were obtained from rat fetuses (Wistar rats; E15; Elevage Janvier, Le Genest St Isle). They were dissected and incubated in trypsin 1× (Gibco; Life Technologies, Cergy-Pontoise, France) for 30 min at 37° C. The reaction was stopped by addition of free Hanks balanced salt solution containing calcium and magnesium; (HBSS^+; Gibco) added with 10% of fetal bovine serum (FBS; Gibco) and 0.5 mg/ml DNAse I (Boehringer Mannheim, Meylan, France). The suspension was triturated with a 10-ml pipette and using a needle seringe. After centrifugation, the dissociated cells were resuspended in DMEM containing 10% FBS, 2% of chick embryos extract (Gibco), 1% antibiotics (Gibco) and NGF (Tebu, Le Perray en Yvelines, France) 3 ng/ml final.
Viable cells were counted and seeded at ±50,000 cells /well in 96 well-plates (Nunclon, Life Technologies) coated with poly-L-lysine (0.01 mg/ml, Sigma). Cells were maintained in a humidified incubator at 37° C. in 5% CO2-95% air atmosphere.
After 24 h, the culture medium was completed with anti-mitotic compounds (5-fluoro-5′-deoxyuridine and cytosine β-D-arabinofuranoside) and uridine all 10^−5M final. This treatment is aimed at eliminating contaminating fibroblasts and inhibiting the proliferation of Schwann cells.
Cultures were rinsed 48 hrs later (medium without any growth factors) and medium was replaced with fresh medium (200 μl /well) containing cisplatin (3.5 ng/ml; Sigma) added or not with the reference or test compounds.
After 48 h of intoxication, survival rates were measured using an acid phosphatase enzymatic activity assay.
Acid phosphatase activity was measured according to a previously described method (Ueda et al.; 1994). After removal of the culture medium, wells were rinsed twice with PBS (Life Technologies) and incubated with 100 μl of buffer containing 0.1 M sodium acetate (pH5.5), 0.1% Triton X100 (Sigma) and 10 mM p-nitrophenyl phosphate (Sigma) 1 h at 37° C./5% CO2. Reaction was stopped by addition of 10 μl of 1N NaOH (LPCR, Strasbourg, France). Enzyme activity was measured at 405 nm in a microplate reader (Labsystem, France).
Acid phosphatase activity is proportional to the amount of living cells. The results were expressed as percentage O.D. as compared to control conditions (same rinsing and medium replacements, but no intoxication and no treatment with either NGF, riluzol or the test compounds).

Caudal nerve = experiment: Vincristine-induced neuropathy, sensitive nerve conduction velocity (SNCV); type: in vivo, Dark Agouti rats
Method: (§1) Animals received vincristine 0.15 mg/ml (IP) per day with the following timing: 5 days of intoxication followed with 2 days without vincristine injection and a new period of 5 days of intox followed with 2 days no intoxication and 2 other days of intoxication with vincristine followed by a 3 week recovery period. The test compound was administered daily from the first day of vincristine injection to the end of the experiments
(§2) Subjects used were 65 female Dark Agouti rats (200-250 g) (n=13 per group). Five groups were used: (1) a vehicle control group; (2) a vincristine-vehicle group;: (3) a vicristine+AIT-082 3 mg/kg IP group; (4) a vicristine+AIT-082 10 mg/kg IP group; and (5) a vicristine+AIT-082 30 mg/kg IP group.
(§3) Electrophysiological Measurements. Electrophysiological recordings were performed once a week using a Neuromatic 2000M electromyographical apparatus (Dantec, France). EMG were performed under Ketamine anesthesia (Imalgène 500®, Merieux, France).
(§4) The measured parameters were: the sensitive nerve conduction velocity (SNCV), the amplitude and the latency compound muscle action potential (CMAP).
Sensitive Nerve Conduction Velocity. Skin electrodes were used. Caudal nerve was stimulated with a series of 20 pulses during 0.2 ms at a supramaximal intensity. The mean of 20 stimulations is included for statistical analysis.
Drug Administration. The test compound was administered daily by the i.p. route from the first day of intoxication with the vincristine to the end of the experiments.

NGF [2] = conditions: rat astrocyte cultures; cited from earlier work
neurotrophin 3 (NT-3) = conditions: rat astrocyte cultures; cited from earlier work
[3] = tested on: peripheral nerve sprouting in the skin; experiment: Peripheral (collateral) nerve sprouting in the skin; type: in vivo; conditions: systemically administered, skin of adult rats
Text: (§5) The growth of such nerve tissue is evoked and maintained entirely by the increased levels of NGF in adjacent denervated skin.

axonal regeneration = experiment: Axonal regeneration after nerve crush; conditions: in vivo
Text: (§6) More specifically, as detailed below in the Example, systematically administered AIT-082 closely mimics the effects both of increased levels of endogenous NGF, and of exogenous NGF. […] The growth of such nerve tissue is evoked and maintained entirely by the increased levels of NGF in adjacent denervated skin.

[4] = tested on: basic fibroblast growth factor (bFGF); conditions: rat astrocyte cultures; cited from earlier work
sciatic nerve = experiment: Vincristine-induced neuropathy, morphometric analysis of sciatic nerve; type: in vivo, Dark Agouti rats; conditions: end of the treatment periods
Method: as §1, §2
Morphometric Analysis. The morphometric analysis was performed on 3 animals per group on sciatic nerve. It includes the measurements of various parameters according to the following procedure: […]
(3) Morphometric analysis: Sections were observed using an optical microscope (Nikon) and morphometric analysis were performed with a semi-automated digital image analysis software (Morphonerf, Alcatel). Per slice, 4 fields were analyzed, the number of myelinated fibers, density of fibers, diameter of fibers, thickness of myelin sheath, surface of myelin sheath and G factor.

NGF [5] = experiment: Endogenous NGF levels in skin; parameters: species or system adult rats; conditions: rat, in vivo
Text: as §6

NGF [6] = conditions: astrocytes; cited from earlier work
[7] = Clinical trials, safety in patients; type: in vivo; conditions: over 1400 patients
Text: The objectives of the studies described in this application are to evaluate AIT-082 and related analogues for their potential utility in the treatment of neuropathies associated with oncolytic therapies. The prototypic compound, AIT-082, is currently in Phase 2 clinical trials for Alzheimer's disease (AD) and has been proven safe in over 1400 patients. Its preclinical pharmacological effects include neuroprotection against excitotoxicity, induction of the synthesis and secretion of neurotrophic and pleiotrophic factors, neuroregenerative effects and proliferative effects on neural progenitor cells. The effects of AIT-082 are unlike any product that has been approved or is currently under evaluation for neuropathies associated with oncolytic agents. AIT-082 and its second generation analogues may arrest or retard neurodegenerative processes, promote neuroregeneration and provide symptomatic relief for cancer patients with neuropathies or at high risk of developing neuropathies.

BDNF = BDNF content in spinal cord by ELISA; type: in vivo, rat; conditions: in drinking water for 7 days
Method: In vivo Effects on Expression and Secretion of Nerve Growth Factors: In attempt to further explore the effects of AIT-082 that could be beneficial for chemotherapy-induced neuropathy, additional studies were conducted on dose-related effects on BDNF levels in the spinal cord. In these studies, AIT-082 was administered in drinking water for 7 days and BDNF content was measured by ELISA assay.

[8] = tested on: gastrocnemius muscle after stimulation of the sciatic nerve; experiment: Vincristine-induced neuropathy, EMG amplitude (compound muscle action potential); type: in vivo, Dark Agouti rats
Method: as §1, §2, §3, §4
Compound Muscle Action Potential and Distal Latency. CPAM was measured in gastrocnemius muscle after stimulation of the sciatic nerve. […] The amplitude (mV) and the latency of the response (ms) are measured. […]

TGF = conditions: astrocytes; cited from earlier work
[9] = Induction of hyperalgesia; parameters: species or system adult rats; conditions: rat, in vivo
Text: as §5

S 100 = conditions: astrocytes; cited from earlier work
[10] = Vincristine intoxication in rats, body weight; type: in vivo, Dark Agouti rats; conditions: repetitive dosing IP, days 11-19 and 22-31; FIG. 2
Method: Animals received vincristine 0.15 mg/ml (IP) per day with the following timing: 5 days of intoxication followed with 2 days without vincristine injection and a new period of 5 days of intox followed with 2 days no intoxication and 2 other days of intoxication with vincristine followed by a 3 week recovery period. The test compound was administered daily from the first day of vincristine injection to the end of the experiments Subjects used were 65 female Dark Agouti rats (200-250 g) (n=13 per group). Five groups were used: (1) a vehicle control group; […] (3) a […]-082 3 mg/kg IP group; (4) a […]-082 10 mg/kg IP group; and (5) a […]-082 30 mg/kg IP group. Behavioral Measurements. The general health and weight of animals were checked every day. Sensorimotor tests were performed twice a week during 6 week study, starting one week before beginning of intoxication (baseline). Drug Administration. The test compound was administered daily by the i.p. route from the first day of intoxication with the vincristine to the end of the experiments.

[11] = prevention of cisplatin toxicity in DRG cells

In the case of `O=C(CCn1cnc2c(=O)[nH]cnc21)NCCCN1CCCC1=O` [AIT-034], the effect on survival ([1]; all concentrations (0.01-100 μM)) is reported as “ineffective”.

With `O=C(CCn1cnc2c(=O)[nH]cnc21)Nc1ccc(C(=O)O)cc1` [AIT-082, N-4-carboxyphenyl-3-(6-oxohydropurin-9-yl) propanamide] the “sensory nerve conduction velocity” value (Caudal nerve; day 17 (intoxication phase) and day 31 (recovery phase), 3-30 mg/kg IP) was “significant and dose-related changes”, the “severity of vincristine induced changes in sensory nerve conduction velocity” value (Caudal nerve; discussion summary) was “reduced the severity” and the “rate of recovery after the termination of vincristine therapy” value (Caudal nerve; discussion summary, SNCV and electromyographic responses) was “improved the rate of recovery”. For the same compound, the “production of NGF mRNA” value (NGF [2]) was “increases the production of mRNAs”, the “production of NT-3 mRNA” value (neurotrophin 3 (NT-3)) was “increases the production of mRNAs” and the “peripheral / collateral nerve sprouting” value [3] was “induce peripheral nerve sprouting; also recorded: induces vigorous collateral sprouting”. The “axonal regeneration after nerve crush” value (axonal regeneration) was “no effect”, the “survival compared to cisplatin alone” value ([1]; 1 μM, cisplatin intoxication 48 h, FIG. 1) was “significantly increased survival” and the “effect on survival at higher doses” value ([1]; doses higher than 1 μM) was “diminished progressively”. For the same compound, the “protection against cisplatin induced neurotoxicity” value ([1]; in vitro model, discussion summary) was “statistically significant protection”, the “effect compared with 5 ng/ml of NGF” value [1, 11] was “greater effect” and the “potency relative to riluzole” value [1, 11] was 10 times. For the same compound, the “production of bFGF mRNA” value [4] was “increases the production of mRNAs”, the “number of myelinated nerve fibers in sciatic nerve biopsies versus vincristine alone” value (sciatic nerve) was “greater numbers of myelinated nerve fibers” and the “endogenous NGF levels in skin” value (NGF [5]) was “up-regulation”. The “secretion of NGF into the culture medium” value (NGF [6]) was “enhanced the secretion”, the safety in patients [7] was “proven safe” and the “BDNF levels in the spinal cord” value (BDNF) was “significant dose-related increases”. The EMG amplitude ([8]; days 17 and 23 (intoxication phase), days 31 and 38 (recovery phase), 3-30 mg/kg IP) was “significant and dose-related changes”, the “severity of vincristine induced changes in electromyographic responses” value ([8]; discussion summary) was “reduced the severity” and the “secretion of TGF into the culture medium” value (TGF) was “enhanced the secretion”. For the same compound, the hyperalgesia [9] was “without the induction of hyperalgesia; also recorded: did not induce hyperalgesia” and the “secretion of S 100 into the culture medium” value (S 100) was “enhanced the secretion”.

For `CC[C@]1(O)C[C@H]2CN(CCc3c([nH]c4ccccc34)[C@@](C(=O)OC)(c3cc4c(cc3OC)N(C=O)[C@H]3[C@@](O)(C(=O)OC)[C@H](OC(C)=O)[C@]5(CC)C=CCN6CC[C@]43[C@@H]65)C2)C1` [Vincristine, vincristine], the “body weight compared to day matched vehicle controls” value [10] was “significant reductions in body weight”.
